The test system of this experiment is Plasmodium falciparum Dd2 asexual blood stage parasites. Nature of the experiment: microbe, parasite or virus in culture. Details: species or system Plasmodium falciparum Dd2 in human erythrocytes; single determination (one 11-point concentration-response curve). The following applies: Plasmodium falciparum, DD2, Erythrocyte, 72 h; read-out: AC50.
With `CCOc1cc(C(=O)Nc2ccc3nc(Nc4cccc(Cl)c4)cc(C)c3c2)cc(OCC)c1OCC` [NCGC00124408-01], the AC50 was determined as 1.88 µM.

For the compound `O=C(c1nnc(CNc2ccncc2)n1-c1ccccc1)N1CCC[C@@H]1C(c1ccccc1)c1ccccc1` [NCGC00415781-01], the AC50 is 10.6 µM.

In the case of `COC(=O)c1nc2n(n1)C(c1ccc([N+](=O)[O-])cc1)C(C(=O)Nc1ccc(Cl)cc1)=C(C)N2` (stereo not shown) [MLS000582454-01], the AC50 is 5.31 µM.

For the compound `Cc1ccc(CN2CCC(CNC(=O)c3cnn(-c4ccc(C)cc4)c3C3CCN(C(=O)OC(C)(C)C)CC3)CC2)cc1` [NCGC00126945-01], the AC50 is 8.41 µM.

Turning to `COc1ccccc1N1CCN(C(=O)CSc2nc(-c3ccc(C(C)C)cc3)no2)CC1` [NCGC00127900-01], the AC50 was found to be 0.376 µM.

Consider `CC(NC(=O)Cn1c(-c2cccs2)cc2cc(F)ccc21)c1ccccc1` (stereo not shown) [NCGC00123911-01], for which the AC50 amounted to 2.66 µM.

Turning to `CC(C)c1ccc(-c2noc(SCC(=O)N(C)c3ccc(F)cc3)n2)cc1` [NCGC00127932-01], the AC50 was 0.944 µM.

As to `CN1CCN(c2ccc(-c3noc([C@@H]4CCCN4C4CCCCC4)n3)cn2)CC1` [NCGC00392835-01], the AC50 was determined as 19.3 µM.

Consider `CCOc1ccccc1NC(C)C(=O)Nc1cc(C(F)(F)F)ccc1N1CCOCC1` (stereo not shown) [MLS000336343-01], for which the AC50 was 2.66 µM.

Consider `Cc1ccc(CN2CCc3oc(C)c(C(=O)NCCN4CCCCC4)c3C2)cc1` [NCGC00471970-01], for which the AC50 was 10.6 µM.

Regarding `CCOc1ccc(NC(=O)Nc2cc(OCC(F)(F)F)cc(OCC(F)(F)F)c2)cc1` [MLS000391697-01], the AC50 was 13.3 µM.

Turning to `COc1ccc(-c2cc([C@H]3CN4CC[C@H]3C[C@@H]4CNC(=O)NC3CCCCC3)n(C)n2)cc1` [NCGC00399776-01], the AC50 is 1.88 µM.

Consider `Cc1cc(N2CCC(C)CC2)nc(-n2nc(C)cc2C)n1` [MLS000109839-01], for which the AC50 was found to be 2.99 µM.

Turning to `CCOc1cc(CNCC(O)c2ccccc2)cc(Cl)c1OC` (stereo not shown) [MLS000676147-01], the AC50 was 3.35 µM.

As for `O=C(Nc1ccccc1)c1cc2c(-c3ccccc3)nn(-c3ccccc3)c2s1` [NCGC00102084-01], the AC50 is 3.35 µM.

For `O=C(Nc1ccc2c(N3CCOCC3)ncnc2c1)c1cccc(Cl)c1` [NCGC00425551-01], the AC50 was determined as 4.73 µM.

`Cc1cccn2c(=O)c3cc(C(=O)NC(C)c4ccccc4)c(=N)n(CCOCCO)c3nc12` (stereo not shown) [NCGC00100488-01]: the AC50 was 10.6 µM.

For the compound `CCC(=O)O[C@]1(C(=O)CCl)[C@@H](C)C[C@H]2[C@@H]3C[C@H](F)C4=CC(=O)C=C[C@]4(C)[C@@]3(F)[C@@H](O)C[C@@]21C` [NCGC00167451-01], the AC50 is 10.6 µM.

Consider `CC(C)=NOC(=O)c1c(C)noc1-c1snnc1C` [MLS000834920-01], for which the AC50 came out at 6.68 µM.

On to `CC(C)c1cc(C(=O)Nc2cc(Cl)ccc2O)no1` [MLS000087324-01], for which the AC50 stood at 6.68 µM.

As to `COc1ccc(C(O)(CCC(C)C)C(CN2CCOCC2)c2ccc(Cl)cc2)cc1` (stereo not shown) [MLS001200330-01], the AC50 stood at 6.68 µM.

With `COC(=O)[C@@H]1Cc2ncn(Cc3ccc(OC)cc3)c2CN1[S+](=O)([O-])Cc1ccccc1` [NCGC00401681-01], the AC50 was 15 µM.

For the compound `Cc1onc(-c2ccc(Cl)cc2)c1-c1ccnn1S(=O)(=O)c1cccc(C(F)(F)F)c1` [MLS001111123-01], the AC50 was determined as 4.73 µM.

In the case of `COc1ccccc1N1CCN(Cc2cc(C)c(C)cc2O)CC1` [MLS000571139-01], the AC50 amounted to 0.376 µM.

Take `Cc1ccc(CNCC(O)(c2ccccc2)c2ccc(Cl)cc2)cc1` (stereo not shown) [MLS000721405-01]: the AC50 turned out to be 2.99 µM.

Turning to `CCOC(=O)c1ccc2c(c1)N(C(CC)C(=O)Nc1ccccc1OC)C(=O)c1ccccc1S2` (stereo not shown) [NCGC00132065-01], the AC50 was 9.44 µM.

For `Cc1cc(CN2CCC(CO)(Cc3ccccc3Cl)CC2)cc(C)c1O` [NCGC00426527-01], the AC50 was 16.8 µM.

With `CCOC(=O)C1(Cc2ccc(Cl)cc2)CCN(Cc2ccc(OC)cc2O)CC1` [NCGC00428386-01], the AC50 came out at 0.188 µM.

With `COc1cccc(CN2C(=O)OC3(CCN(Cc4ccc5c(c4)CCO5)CC3)C2(C)c2cccnc2)c1` (stereo not shown) [NCGC00415555-01], the AC50 worked out at 4.73 µM.

As to `COc1ccc(Oc2nc(-c3ccccn3)nc3ccccc23)cc1` [MLS000769536-01], the AC50 came to 2.99 µM.

Consider `CCc1c(C)c2ccc(O)c(CN3CCN(c4ccccc4)CC3)c2oc1=O` [NCGC00119657-01], for which the AC50 is 2.37 µM.

In the case of `Cc1nnc2c(N3CCN(c4ccccc4)CC3)nc3ccc(C(=O)c4ccccc4)cc3n12` [NCGC00107547-01], the AC50 was determined as 0.841 µM.

Regarding `COC(=O)c1ccc2nc(C)cc(Nc3ccc(O)cc3)c2c1` [NCGC00099848-01], the AC50 was determined as 9.44 µM.

Turning to `CC(C)N1CCC2(CC1)CN(C(=O)Cc1cccc(F)c1)Cc1ccccc1O2` [NCGC00456475-01], the AC50 was found to be 15 µM.

With `Cc1cc2cc(-c3c(C)noc3C)nc(N(C)CCN(C)C)c2o1` [NCGC00417474-01], the AC50 was determined as 12.2 µM.

For `COc1ccccc1N1CCN(CCCNC(=O)c2cnn(-c3cccc(Cl)c3)c2C2CCN(C(=O)OC(C)(C)C)CC2)CC1` [NCGC00126882-01], the AC50 is 2.11 µM.

Consider `CN1CCN(C(=O)C(C)(C)Oc2nn(Cc3cccc(Cl)c3)c3ccccc23)CC1` [NCGC00419545-01], for which the concentration at half-maximal activity (AC50) is 7.69 µM.

With `COc1ccc(C)cc1NC(=O)N1CCCC2(C1)Nc1cccnc1N=C2NC1CCCC1` (stereo not shown) [NCGC00440441-01], the AC50 is 6.68 µM.

Regarding `COc1cc2c(cc1OCc1ccccc1)NC(=O)C21CCN(c2ccccn2)CC1` [NCGC00416940-01], the AC50 is 15.3 µM.

Regarding `Cc1ccccc1N(C(=O)c1snc(C(N)=O)c1N)C(C(=O)NCC1CCCO1)c1ccc(N(C)C)cc1` (stereo not shown) [MLS001218424-01], the AC50 came to 7.5 µM.

In the case of `COc1ccc(-c2c3c(nc4sc(C(=O)Nc5ccc(Cl)cc5)c(N)c24)CC(C)(C)CC3=O)cc1` [NCGC00100738-01], the AC50 was determined as 0.376 µM.

Turning to `O=C1CC2(CCN(Cc3ccccc3)CC2)Oc2ccccc21` [NCGC00476829-01], the AC50 turned out to be 13.7 µM.

For `O=C(c1cccc(O)c1)N1CC=C(c2cnc3cnc(-c4ccccc4)cn23)CC1` [NCGC00414040-01], the AC50 came to 9.68 µM.

Take `CCOC(=O)c1c([S+](=O)([O-])N2CCCC(C(=O)N3CCN(c4cc(C)ccc4C)CC3)C2)c(C)n(C)c1C` (stereo not shown) [NCGC00138145-01]: the AC50 came to 1.5 µM.

For `Cc1cc(NC(=O)c2cc(-c3ccco3)on2)nn1Cc1ccc(Cl)cc1` [MLS000087231-01], the AC50 turned out to be 8.41 µM.

As for `COc1ccc(-c2cc(N3CCN(C(=O)c4c[nH]c5ccccc45)CC3)[nH]n2)cc1` [NCGC00436860-01], the AC50 came out at 15 µM.

Turning to `COc1ccc(-c2nc3c(c(SCc4ccc(Br)cc4)n2)Cc2c(CO)cnc(C)c2O3)cc1` [NCGC00122580-01], the AC50 came to 0.0668 µM.

Regarding `Cc1ccc(CSC2=Nc3ccccc3C3=NC(CC(=O)NCc4ccco4)C(=O)N23)cc1` (stereo not shown) [MLS000094891-01], the AC50 came out at 6.68 µM.

Consider `c1ccc(Sc2cccc3ccccc23)c(CNC2=NCCN2)c1` [MLS000702748-01], for which the AC50 came out at 13.3 µM.

In the case of `CCOC(=O)c1cccc(NC(=O)CCn2c(-c3ccc(F)cc3)cc(C(=O)OCC)c2C)c1` [NCGC00140860-01], the AC50 is 0.075 µM.

Consider `COc1ccc2cc1Nc1ccc(cc1)C[C@H](NCc1cccc(C(=O)O)c1)C(=O)N(C)[C@H](C(=O)Nc1ccccc1OCc1ccccc1)C2` [NCGC00410264-01], for which the AC50 was 4.73 µM.

For the compound `O=c1nc(C2CCCN(CC3CCCCC3)C2)[nH]n1-c1ccc(Cl)cc1` (stereo not shown) [NCGC00477729-01], the AC50 was found to be 6.68 µM.

In the case of `COc1ccc(CN2CCC3(C2)C(NC2CCCCC2)=NC(=O)N3c2cccnc2)cc1` (stereo not shown) [NCGC00374261-01], the AC50 is 2.11 µM.

On to `COc1cccc(NC(=O)c2sc3nc(C)c(C(=O)Nc4ccc(C)cc4C)c(-c4cccs4)c3c2N)c1` [NCGC00107008-01], for which the AC50 worked out at 5.96 µM.

Regarding `COc1ccc(CCNC(=O)CCc2c(C)nc3c(c(C)nn3-c3ccc(C)c(C)c3)c2C)cc1OC` [NCGC00110173-01], the AC50 turned out to be 0.668 µM.

As to `CCOC(=O)c1c(NC(=O)CSc2nc3ccccc3c(=O)n2-c2ccccc2)sc(C(C)=O)c1C` [MLS000335169-01], the AC50 turned out to be 13.3 µM.

In the case of `O=C(NC(S)=Nc1ccc(NC(=O)c2cccs2)cc1)c1ccco1` [MLS000567605-01], the AC50 was 9.44 µM.

For `Cc1ccc([S+](=O)([O-])N2CCC3(CCN(Cc4cccs4)c4ccccc4O3)CC2)cc1` [NCGC00478057-01], the half-maximal activity concentration (AC50) was found to be 18.8 µM.

For `COc1ccc(O)c(C(=O)c2cnc3c(c2)c(-c2ccc(F)cc2)c(C#N)c(=O)n3C)c1` [MLS001003111-01], the AC50 came to 5.96 µM.

On to `CCOc1ccc(CCNC(=O)Nc2ccccc2)cc1OCC` [MLS001197603-01], for which the AC50 was found to be 5.31 µM.

Regarding `Cc1ccc(C)c(N2CCN(C(=O)c3cc([S+](=O)([O-])N4CCCCCC4)cn3C)CC2)c1` [NCGC00132413-01], the AC50 is 10.6 µM.

Consider `CNC(=O)CCn1ncc2cc(OCc3ccccc3-c3ccccc3OC)ccc21` [NCGC00418023-01], for which the AC50 is 15.3 µM.

In the case of `Cn1cccc1CN1C[C@@H](COc2ccncc2)[C@H](c2ccccn2)C1` [NCGC00468708-01], the AC50 is 13.3 µM.

As to `CC(O)CNCCNCc1c(OCc2ccccc2)ccc2ccccc12` (stereo not shown) [MLS000324858-01], the AC50 amounted to 8.41 µM.

Consider `CCC(C)(C)n1nnnc1C(c1ccccc1OC)N1CCN(C(=O)c2ccco2)CC1` (stereo not shown) [MLS001221981-01], for which the AC50 was 15 µM.

`CCC(C)NC(=O)c1ccccc1NC(=O)C1COc2ccccc2O1` (stereo not shown) [MLS000708698-01]: the AC50 was found to be 10.6 µM.

In the case of `C=CCOC(=O)Nc1nc2c(s1)C[C@@H]1[C@](C)(CO)[C@H](O)CC[C@@]1(C)[C@@H]2CC(=O)NC1CCCCC1` [NCGC00395650-01], the AC50 worked out at 3.76 µM.

With `CC(=O)c1sc2c(c1C)c(=O)n(-c1ccc(Cl)cc1)c(=O)n2Cc1cc(=O)n2cc(Cl)ccc2n1` [NCGC00104860-01], the AC50 was determined as 7.5 µM.

For the compound `COC(=O)[C@@H]1Cc2c([nH]c3ccccc23)[C@H]2C[C@H](N3CCCCC3)C[C@@H](c3ccccc3F)N21` [NCGC00421326-01], the AC50 amounted to 5.96 µM.

With `O=C(Nc1ccsc1C(=O)NC1CCCCC1)c1ccc(F)cc1` [MLS000546987-01], the AC50 came out at 6.68 µM.
